Assay results from patent EP4631940A1, “COMPOUND TARGETING PAN-KRAS PROTEIN DEGRADATION AGENT AND USE THEREOF” (Betta Pharmaceuticals Co., Ltd., priority 2022, dated 2024).
Where two headings read alike, the source gives them in different places.

Experiments:
KRAS G12D [1] = target: T1, KRAS G12D (Homo sapiens, UniProt P01116, G12D)
in vitro [2] = conditions: dog, microsomes
[3] = PK study in ICR mice (plasma); type: in vivo; conditions: Female ICR mice, IV 1 mg/kg; for AUC(0-t) / C0 / half-life: mouse
Experimental: Example 9 PK Study of Compound in ICR Mice (plasma)
(§1) The compound was mixed with the vehicle (10% DMSO / 5% Solutol HS 15 / 85% saline), vortexed, and sonicated to prepare a clear solution at 0.2 mg/mL. Female ICR mice aged 6 to 7 weeks (non-fasted) were intravenously administered the compound. Plasma was collected at specified time points. Drug concentration was analyzed by LC-MS/MS, and pharmacokinetic parameters were calculated using Phoenix WinNonlin software (Pharsight Corporation, USA). Table 12 Mouse PK Data for Intravenous Compound Monotherapy

AGS = assay: Cell proliferation experiment (CellTiter-Glo); type: cell-based; conditions: Homo sapiens, AGS, 96 h, read-out: IC50(nM) AGS
KRAS G12D [4] = target: T1, KRAS G12D; assay: cell-based; conditions: AGS
in vitro [5] = conditions: human, microsomes
in vitro [6] = conditions: mouse, microsomes
H1975 = assay: Cell proliferation experiment (CellTiter-Glo); type: cell-based; conditions: Homo sapiens, NCI-H1975; H1975, KRAS WT; 96 h incubation
PK-59 cells = assay: Anti-tumor effects in a human pancreatic cancer xenograft model carrying KRAS^G12D mutation; type: in vivo, BALB/c Nude Crlj mice; conditions: QW, tail vein, PK-59 xenograft
H358 = assay: Cell proliferation experiment (CellTiter-Glo); type: cell-based; conditions: Homo sapiens, NCI-H358; H358, KRAS mutation type G12C; 96 h incubation
SW620 = assay: Cell proliferation experiment (CellTiter-Glo); type: cell-based; conditions: Homo sapiens, SW-620, 96 h, read-out: IC50(nM) SW620
KRAS G12D [7] = target: T1, KRAS G12D; assay: Western blot study of KRAS degradation in AGS cells; type: cell-based; design: endogenous in cells; host or cells: AGS; conditions: 3 h incubation
HCT116 = assay: Cell proliferation experiment (CellTiter-Glo); type: cell-based; conditions: Homo sapiens, HCT-116; HCT116, KRAS mutation type G13D; 96 h incubation
in vitro [8] = conditions: rat, microsomes
KRAS G12V = target: T2, KRAS G12V (Homo sapiens, UniProt P01116, G12V); assay: Western blot study of KRAS degradation in SW620 cells; type: cell-based; conditions: 3 h incubation
T2 construct: endogenous in cells; host or cells: SW620
T2 sequence (P01116 1-188 isoform P01116-2 G12V): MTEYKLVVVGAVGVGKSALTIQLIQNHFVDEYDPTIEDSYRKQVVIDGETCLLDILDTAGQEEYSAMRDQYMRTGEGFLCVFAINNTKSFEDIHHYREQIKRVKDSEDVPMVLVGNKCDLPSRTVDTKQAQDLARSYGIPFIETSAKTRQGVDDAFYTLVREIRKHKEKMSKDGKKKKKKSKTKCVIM

[9] = PK study in Beagle dogs (plasma); type: in vivo; conditions: IV 1 mg/kg
Experimental: Example 10 PK Study of Compound 135 in Beagle Dogs
as §1, with “Compound 135” for “The compound”, “0.5” for “0.2”, “Beagle dogs weighing approximately 10 kg (equal number of males and females, non-fasted)” for “Female ICR mice aged 6 to 7 weeks (non-fasted)”, “13 Beagle Dog” for “12 Mouse”

KRAS G13D = target: T3, KRAS G13D (Homo sapiens, UniProt P01116, G13D); assay: Western blot study of KRAS degradation in HCT116 cells; type: cell-based; conditions: 3 h incubation
T3 construct: endogenous in cells; host or cells: HCT116
T3 sequence (P01116 1-188 isoform P01116-2 G13D): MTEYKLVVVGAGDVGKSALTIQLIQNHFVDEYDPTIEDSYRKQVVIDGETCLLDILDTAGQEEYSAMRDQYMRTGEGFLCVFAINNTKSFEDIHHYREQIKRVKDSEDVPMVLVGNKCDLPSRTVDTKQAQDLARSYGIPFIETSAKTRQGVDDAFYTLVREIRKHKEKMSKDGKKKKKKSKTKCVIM

PK59 = assay: Cell proliferation experiment (CellTiter-Glo); type: cell-based; conditions: PK-59; PK59, KRAS mutation type G12D; 96 h incubation
[10] = PK study in Balbc mice (whole blood); type: in vivo; conditions: Female Balbc mice, IV 1 mg/kg
Experimental: Example 7 PK Study of Compound 2 in Balbc Mice
as §1, with “Compound 2” for “The compound”, “Balbc” for “ICR”, “Compound 2. Whole blood” for “the compound. Plasma”, “10” for “12”, “Compound 2” for “Compound”

[11] = not given; remark: listed apart in the source

T1 sequence (P01116 1-188 isoform P01116-2 G12D): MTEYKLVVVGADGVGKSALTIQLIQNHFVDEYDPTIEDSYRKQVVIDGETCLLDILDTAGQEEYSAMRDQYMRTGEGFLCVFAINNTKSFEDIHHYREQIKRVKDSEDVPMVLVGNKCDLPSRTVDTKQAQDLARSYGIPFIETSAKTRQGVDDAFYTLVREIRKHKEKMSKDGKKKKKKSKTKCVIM

Compound | DC50 (KRAS G12D [1]) [nM] | microsomal CLint (in vitro [2]) [µL/min/mg] | Cl_obs [3] [mL/min/kg] | Vss_obs [3] [L/kg] | AUC(0-t) [3] [ng·h/mL] | C0 [3] [ng/mL] | half-life [3] [h] | IC50 (AGS) [nM] | Dmax (KRAS G12D [4]) [%] | microsomal CLint (in vitro [5]) [µL/min/mg] | microsomal CLint (in vitro [6]) [µL/min/mg] | IC50 (H358) [nM] | IC50 (SW620) [nM] | microsomal CLint (in vitro [8]) [µL/min/mg] | also measured
CCc1c(F)ccc2cc(O)cc(-c3ncc4c(N5CCC[C@@](C)(O)C5)nc(OCC5(CN6CCN(c7ccc(-c8cn([C@H](C(=O)N9C[C@H](O)C[C@H]9C(=O)N[C@@H](C)c9ccc(-c%10scnc%10C)cc9)C(C)C)nn8)cn7)CC6)CC5)nc4c3F)c12 [Compound 142] | 6.3 | 14.2 | 7.32 | 0.854 | 2300 | 9460 | 4.1 | 10 | 95 | 11.1 | 17.7 |  |  |  | The in vitro intrinsic clearance in liver microsomes (CLint, in vitro, µL/min/mg protein) Rat: 0.0 µL/min/mg protein
CCc1c(F)ccc2cc(O)cc(-c3ncc4c(N5CCC[C@@](C)(O)C5)nc(OCC5(CN6CCC(Oc7cnc(-c8cn([C@H](C(=O)N9C[C@H](O)C[C@H]9C(=O)N[C@@H](C)c9ccc(-c%10scnc%10C)cc9)C(C)C)nn8)cn7)CC6)CC5)nc4c3F)c12 [Compound 144] | 1.1 | 7.4 | 5.81 | 1.54 | 2730 | 5530 | 9.34 | 3 | 95 | 18.8 | 10.9 | 5 | 8.4 | 6.2 | IC50 (H1975): > 10000 nM; TGI After 4 Weeks of Administration (%) (PK-59 cells; 1 mg/kg): 82%; TGI After 4 Weeks of Administration (%) (PK-59 cells; 3 mg/kg): 93%; TGI After 4 Weeks of Administration (%) (PK-59 cells; 10 mg/kg): 113%; KRAS G12D protein degradation (Western blot, Fig. 5) (KRAS G12D [7]): effectively degraded; IC50 (HCT116): 13 nM; KRAS G12V protein degradation (Western blot, Fig. 5) (KRAS G12V): effectively degraded; Cl_obs [9]: 6.19 mL/min/kg; Vss_obs [9]: 3.46 L/kg; AUC(0-t) ([9]; dog): 2520 ng·h/mL; C0 ([9]; dog): 9890 ng/mL; half-life ([9]; dog): 20.5 h; KRAS G13D protein degradation (Western blot, Fig. 5) (KRAS G13D): effectively degraded; IC50 (PK59): 4.4 nM
CCc1c(F)ccc2cc(O)cc(-c3ncc4c(N5CCCC(C)(O)C5)nc(OC[C@]56CCCN5[C@@H](COC(=O)N5CCC7(CC5)CC(C(=O)N[C@H](C(=O)N5C[C@H](O)C[C@H]5C(=O)N[C@@H](C)c5ccc(-c8scnc8C)cc5)C(C)(C)C)C7)CC6)nc4c3F)c12 (stereo partly drawn) [Compound 2, ((3R,7aR)-7a-(((7-(8-ethyl-7-fluoro-3-hydroxynaphthalen-1-yl)-8-fluoro-4-(3-hydroxy-3-methylpiperidin-1-yl)pyrido[4,3-d]pyrimidin-2-yl)oxy)methyl)hexahydro-1H-pyrrolizin-3-yl)methyl 2-(((S)-1-((2S,4R)-4-hydroxy-2-(((S)-1-(4-(4-methylthiazol-5-yl)phenyl)ethyl)carbamoyl)pyrrolidin-1-yl)-3,3-dimethyl-1-oxobutan-2-yl)carbamoyl)-7-azaspiro[3.5]nonane-7-carboxylate] |  |  |  |  |  |  |  | 44 | 95 | 31 | 16.6 | 143 | 501 | 11.6 | DC50 (KRAS G12D [1]; AGS cell line, In Cell Western Blotting, KRAS^G12D vs GAPDH): 316 nM; Cl_obs [10]: 3.77 mL/min/kg; Vss_obs [10]: 0.586 L/kg; AUC(0-t) ([10]; mouse): 4380 ng·h/mL; C0 ([10]; mouse): 8790 ng/mL; half-life ([10]; mouse): 6.49 h; The in vitro intrinsic clearance in liver microsomes (CLint, in vitro, µL/min/mg protein) Dog [11]: 0.0 µL/min/mg protein
